According to patent publication US7314879B2, “Melanocortin receptor agonists” (Eli Lilly and Company, priority 2002, dated 2008):

Columns and labels:
MC4 [1] = molecular target: T1, MC4 (Homo sapiens, UniProt P32245); assay: Radioligand binding assay: competitive inhibition of 125I-NDP-alpha-MSH binding to membranes of stably transfected HEK 293 cells; conditions: 125I-NDP-alpha-MSH competition; Ki from IC50 by Cheng-Prusoff equation
T1 construct: expressed in transfected cells; host or cells: HEK 293
Procedure: The radioligand binding assay is used to identify competitive inhibitors of ^125I-NDP-alpha-MSH binding to cloned human MCRs using membranes from stably transfected human embryonic kidney (HEK) 293 cells.
HEK 293 cells transfected with human or rat melanocortinin receptors are grown either as adherent monolayers or suspension culture. Monolayer cells are grown in roller bottle cultures at 37° C. and 5% CO2/air atmosphere in a 3:1 mixture of Dulbecco's modified Eagle medium (DMEM) and Ham's F12 containing 25 mM L-glucose, 100 units/ml penicillin G, 100 microgram/ml streptomyocin, 250 nanogram/ml amphoterin B, 300 microgram/ml genticin and supplemented with 5% fetal bovine serum. Monolayer cells are adapted to suspension culture (Berg et al., Biotechniques Vol. 14, No.6, 1993) and are grown in spinner or shaker flasks (37° C. and 7.5% CO2/air overlay) in a modified DME/F12 medium containing 0.1 mM CaCl2, 2% equine serum and 100 microgram/ml sodium heparin (to prevent cell-cell aggregation). Cells are harvested by centrifugation, washed in PBS, and pellets are stored frozen at −80° C. until membrane preparations.
The cell pellets are resuspended in 10 volumes of membrane preparation buffer (i.e., 1 g pellet to 10 ml buffer) having the following composition: 50 mM Tris pH 7.5 @ 4° C., 250 mM sucrose, 1 mM MgCl2, Complete® EDTA-free protease inhibitor tablet (Boehringer Mannheim), and 24 micrograms/ml DNase I (Sigma, St. Louis, Mo.). The cells are homogenized with a motor-driven dounce using 20 strokes, and the homogenate is centrifuged at 38,000×g at 4° C. for 40 minutes. […]
Solutions of a compound of formula I (300 picomolar to 30 micromolar) or unlabelled NDP-alpha-MSH (1 picomolar to 100 nanomolar) are added to 150 microliters of membrane binding buffer to yield final concentrations (listed in parantheses). […] The radioactivity is quantified in a Wallac Trilux Microplate Scintillation counter. […]

MC4 [2] = molecular target: T1, MC4; assay: Functional agonist assay in HEK 293 cells stably expressing melanocortin receptor (luciferase reporter / whole cell cAMP accumulation); assay type: cell-based; conditions: for EC50: agonist potency, concentration giving half maximal stimulation; for % Rel. Eff.: relative efficacy compared to NDP-alpha-MSH defined as 100% agonist
Excerpt: Functional cell based assays are developed to discriminate agonists and antagonists.
Agonist Assay: HEK 293 cells stably expressing a human melanocortin receptor (see e.g., Yang, et al., Mol-Endocrinol., 11(3): 274-80, 1997) are dissociated from tissue culture flasks using a trypsin/EDTA solution (0.25%; Life Technologies, Rockville, Md.). Cells are collected by centrifugation and resuspended in DMEM (Life Technologies, Rockville, Md.) supplemented with 1% L-glutamine and 0.5% fetal bovine serum. Cells are counted and diluted to 4.5×10^5/ml.
A compound of formula I is diluted in dimethylsulfoxide (DMSO) (3×10^−5 to 3×10^−10 M final concentrations) and 0.05 volume of compound solution is added to 0.95 volumes of cell suspension; the final DMSO concentration is 0.5%. After incubation at 37° C./5% CO2 for 5 hours, cells are lysed by addition of luciferin solution (50 mM Tris, 1 mM MgCl2, 0.2% Triton-X100, 5 mM DTT, 500 micromolar Coenzyme A, 150 micromolar ATP, and 440 micromolar luciferin) to quantify the activity of the reporter gene luciferase, an indirect measurement of intracellular cAMP production.
Luciferase activity is measured from the cell lysate using a Wallac Victor 2 luminometer. The amount of lumen production which results from a compound of formula I is compared to that amount of lumens produced in response to NDP-alpha-MSH, defined as a 100% agonist, to obtain the relative efficacy of a compound. The EC50 is defined as the compound concentration that results in half maximal stimulation, when compared to its own maximal level of stimulation.
In the agonist assay, compounds are prepared as 10 mM and NDP-aMSH (control) as 33.3 μM stock solutions in 100% DMSO. These are serially diluted in 100% DMSO. The compound plate is further diluted 1:200 in compound dilution buffer (HBSS-092, 1 mM Ascorbic Acid, 1 mM IBMX, 0.6% DMSO, 0.1% BSA). The final concentration range being 10 μM-100 pM for compound and 33.33 nM-0.3 pM for control in 0.5% DMSO. Transfer 20 μl from this plate into four PET 96-well plates (all assays are performed in duplicate for each receptor).
HEK 293 cells stably transfected with the MC3R and MC4R were grown in DMEM containing 10% FBS and 1% Antibiotic/Antimycotic Solution. On the day of the assay the cells were dislodged with enzyme free cell dissociation solution and resuspended in cell buffer (HBSS-092, 0.1% BSA, 10 mM HEPES) at 1×e6 cells/ml. Add 40 μl of cells/well to the PET 96-well plates containing 20 ul diluted compound and control. Incubate @ 37° C. in a waterbath for 20 minutes. Stop the assay by adding 50 μl Quench Buffer (50 mM Na Acetate, 0.25% Triton X-100).
Radioligand binding assays were run in SPA buffer (50 mM Sodium Acetate, 0.1% BSA). The beads, antibody and radioligand were diluted in SPA buffer to provide sufficient volume for each 96-well plate. To each quenched assay well was added 100 ul cocktail containing 33.33 ul of beads, 33.33 μl antibody and 33.33 μl ^125 I-cAMP. This was based on a final concentration of 6.3 mg/ml beads, 0.65% anti-goat antibody and 61 pM of ^125I-cAMP (containing 25000-30000 CPM) in a final assay volume of 210 μl. The plates were counted in a Wallac MicroBeta counter after a 12-hour incubation.
The data was converted to pmoles cAMP using a standard curve assayed under the same conditions. The data was analyzed using Activity Base software to generate agonist potencies (EC50) and percent relative efficacy data to NDP-aMSH.

T1 sequence (P32245 whole entry): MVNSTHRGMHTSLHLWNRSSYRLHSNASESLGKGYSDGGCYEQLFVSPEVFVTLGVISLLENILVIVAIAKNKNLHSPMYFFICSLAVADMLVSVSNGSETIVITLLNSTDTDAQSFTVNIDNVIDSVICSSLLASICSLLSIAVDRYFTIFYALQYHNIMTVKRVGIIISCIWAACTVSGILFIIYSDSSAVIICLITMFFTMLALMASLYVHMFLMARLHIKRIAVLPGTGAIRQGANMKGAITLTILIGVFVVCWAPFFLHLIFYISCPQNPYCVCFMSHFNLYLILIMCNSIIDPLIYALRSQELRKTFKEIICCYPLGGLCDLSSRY

| Ki (MC4 [1]) | EC50 (MC4 [2]) | % Rel. Eff. (MC4 [2]) | Structure (SMILES) |
| --- | --- | --- | --- |
| 24.3 nM | 18.9 nM | 114% | CN1CCC(Cc2ccccc2F)(N2CCN(C(=O)[C@@H](Cc3ccc(Cl)cc3)NC(=O)CC3NCc4ccccc43)CC2)CC1 (stereo partly drawn) [Example 4I] |
| 28.8 nM | 99.8 nM | 124% | CC(C)CC1(N2CCN(C(=O)[C@@H](Cc3ccc(Cl)cc3)NC(=O)CC3NCc4ccccc43)CC2)CCCC1 (stereo partly drawn) [Example 8I] |
| 6.5 nM | 25.4 nM | 112% | CN1CCC(CC2CCCCC2)(N2CCN(C(=O)[C@@H](Cc3ccc(Cl)cc3)NC(=O)CC3NCc4ccccc43)CC2)CC1 (stereo partly drawn) [Example 10I] |
